Common to all, as to format: cell-based, human
Assay [1] has as its system CD138neg MM progenitors derived from primary clinical specimens. The experiment in a line: Clonogenic recovery of CD138neg MM progenitors from primary clinical samples. Conditions: 4 MM patients; FIG. 10C; P>0.2 compared to the untreated control.
Assay [2] deals with CD138+ plasma cells from the RPMI 8226 and NCI-H929 MM cell lines. As to the kind of experiment: Clonogenic growth of CD138+ plasma cells isolated from MM cell lines. Conditions: FIGS. 10A and B, P<0.02 compared to the untreated control.
The subject of another assay is clonogenic MM cells. The experiment in a line: In vitro clonogenic growth of MM precursors (summary statements). The settings on record: summary statement. From the text:
Many agents are active in multiple myeloma (MM), but the majority of patients relapse. […] We further characterized clonogenic MM cells and stained cell lines using the Hoechst side population and Aldefluor assays. […] Furthermore, both the side population and Aldefluor assays were capable of identifying circulating clonotypic memory B cell populations within the peripheral blood of MM patients.
CD138^− precursors or CD138^+ plasma cells were isolated from the RPMI 8226 or NCI-H929 cell lines and treated with each of the two humanized monoclonal antibodies, rituximab or alemtuzumab, and in combination with human complement that strongly enhances their in vitro activity through complement dependent cytoxicity. Neither complement alone nor the monoclonal antibodies with or without complement affected the clonogenic growth of CD138^+ plasma cells that lack the target antigens (FIG. 8B; P>0.3 for all groups compared to the untreated control).
Although stem cells have been identified in an increasing number of human cancers, the clinical relevance and implications of these findings remain unclear. Standard response criteria used to measure the clinical efficacy of anti-cancer treatments primarily reflect changes in disease bulk and activity against mature tumor cells. Since cancer stem cells are a relatively low frequency population in most tumor types, the true inhibition of these cells is likely to be difficult to assess early following treatment, and a prolongation of disease remission would be required to establish such activity. The initial clinical responses induced by dexamethasone, lenalidomide, bortezomib and cyclophosphamide seen as decreased bone marrow plasmacytosis and monoclonal Ig levels in MM likely reflect the activity of these agents against mature MM plasma cells. […] It is well known that the anti-tumor activity of these agents is mediated in part by modulating the interaction between myeloma plasma cells and bone marrow stromal cells.
Our results complement a recent report describing the relative radioresistance of glioblastoma cancer stem cells compared to the differentiated cells that make up the bulk of the tumor mass. The stark biological differences between cancer stem cells and mature tumor cells is likely to be representative of many other malignancies as the clinical pattern of relapse following effective treatment can be seen in most human cancers. Therefore, therapeutic strategies that target the specific biology of cancer stem cells are likely required to prevent the continued production of mature tumor cells and produce sustained remissions. […] Therefore, optimal clinical strategies may require combining agents active against MM plasma cells to decrease tumor burden and alleviate symptoms with those that target MM cancer stem cells to prevent tumor regrowth and relapse.

Entries after “also recorded” stand apart in the source; their conditions may differ.

Regarding `CC(C)C[C@H](NC(=O)[C@H](Cc1ccccc1)NC(=O)c1cnccn1)B(O)O` [bortezomib], in assay [1], the “effect on clonogenic MM precursors from patients” value is reported as “not significantly affected”. The “clonogenic growth of CD138+ plasma cells” value in assay [2] is “inhibited”. For the same compound, the “effect of anti-myeloma agents on CD138neg precursors / clonogenic MM progenitors” value with clonogenic MM cells is “little effect; also recorded: similarly resistant”.
Turning to `Nc1cccc2c1CN(C1CCC(=O)NC1=O)C2=O` (stereo not drawn) [lenalidomide], in assay [1], the “effect on clonogenic MM precursors from patients” value is reported as “not significantly affected”. Further, the “clonogenic growth of CD138+ plasma cells” value in assay [2] is “inhibited”. Besides, the “effect of anti-myeloma agents on CD138neg precursors / clonogenic MM progenitors” value in the assay with clonogenic MM cells is reported as “similarly resistant”; with clonogenic MM cells (listed as lenadilomide), “little effect”.
For the compound “Rituximab: humanized monoclonal antibody that targets the B-cell antigen CD20”, the “effect of antibodies on clonogenic MM cells” value in the assay on clonogenic MM cells is “inhibit clonogenic MM cells”.
The same measure, in the same setting: as for “alemtuzumab: humanized monoclonal antibody that targets the B-cell antigen CD52”, the entry is “inhibit clonogenic MM cells”.

(Values after US8748113B2, “Methods for detecting and monitoring circulating cancer stem cells” (The Johns Hopkins University, priority 2007, dated 2014).)
